Measurements taken from patent US4014883A, “Indoloquinolines, intermediates and processes” (Hoffmann-La Roche Inc., priority 1975, dated 1977).

Key:
acute LD50 in mice = conditions: mouse, in vivo
Sarcoma 180 (S-180) = assay: inhibition of growth of transplantable Sarcoma 180 (S-180) tumors, C/T ratio; assay type: in vivo; conditions: S-180 in mice, once daily for 8 days, ratio greater than 2 = active

CN(C)CCn1c(=O)c2[nH]c3ccc(Cl)cc3c2c2ccccc21 [10-chloro-5-(2-dimethylaminoethyl)-7H-indolo[2,3-c]quinolin-6(5H)-one]
LD50 (acute LD50 in mice; ip): > 2000 mg/kg | LD50 (acute LD50 in mice; po): > 4000 mg/kg | C/T ratio (average tumor weight of untreated controls / treated) (Sarcoma 180 (S-180); 100 mg/kg i.p.): 3.50 | C/T ratio (average tumor weight of untreated controls / treated) (Sarcoma 180 (S-180); 100 mg/kg orally): 3.05
